Test results published in patent publication US20210101899A1, “INHIBITORS OF MUTANT ISOCITRATE DEHYDROGENASES AND COMPOSITIONS AND METHODS THEREOF” (IsoCure Biosciences Inc., priority 2016, published 2021).

What was measured:
Format in all cases: biochemical
IDH1 (R132C) = IDH1 (R132C) (Homo sapiens, UniProt O75874, R132C); assay: IDH enzyme assay, NADPH depletion by diaphorase/resazurin coupled detection; details: pre-incubated with enzyme for 1 h at room temperature; 500 μM a-Ketoglutarate+15 μM NADPH; 10-dose, 3-fold dilution from 10 μM; read-out: Compound IC50 (nM) IDH1 (R132C)
Chain of IDH1 (R132C) (O75874 whole entry R132C): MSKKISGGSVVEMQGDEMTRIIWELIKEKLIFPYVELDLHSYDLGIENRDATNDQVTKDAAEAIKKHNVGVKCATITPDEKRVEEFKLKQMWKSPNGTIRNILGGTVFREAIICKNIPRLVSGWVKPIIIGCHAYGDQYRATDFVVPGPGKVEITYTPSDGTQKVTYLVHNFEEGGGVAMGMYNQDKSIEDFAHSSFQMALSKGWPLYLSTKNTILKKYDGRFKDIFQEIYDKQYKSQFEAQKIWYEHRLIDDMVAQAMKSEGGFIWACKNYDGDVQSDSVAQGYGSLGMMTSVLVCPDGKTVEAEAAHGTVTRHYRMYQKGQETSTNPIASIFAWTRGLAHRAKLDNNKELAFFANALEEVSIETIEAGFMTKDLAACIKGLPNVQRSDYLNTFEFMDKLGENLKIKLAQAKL
Protocol: (§1) Compounds were tested against 3 enzymes, as provided below. Compounds were tested in 10-dose IC50 mode with 3-fold serial dilution at a starting concentration of 10 μM. Control Compounds were tested in 10-dose IC50 mode with 3-fold serial dilution starting at 1 mM or 10 mM. Assay Format: The production or depletion of NADPH by IDH enzymes was measured by diaphorase/resazurin coupled detection. Fluorescence measurement: Ex/Em=535/590 by EnVision. Compounds were pre-incubated with enzyme for 1 h at room temperature. Standard substrate: 1500 μM a-Ketoglutarate+15 μM NADPH for IDH1 (R132H). 500 μM a-Ketoglutarate+15 μM NADPH for IDH1 (R132C). 65 μM Isocitrate+50 μM NADP for IDH1.

IDH1 (R132H) = IDH1 (R132H) (Homo sapiens, UniProt O75874, R132H); assay: as above; details: pre-incubated with enzyme for 1 h at room temperature; 1500 μM a-Ketoglutarate+15 μM NADPH; 10-dose, 3-fold dilution from 10 μM; read-out: Compound IC50 (nM) IDH1 (R132H)
Chain of IDH1 (R132H) (O75874 whole entry R132H): as the sequence (O75874 whole entry R132C) above, with C132H counted along it
Protocol: as §1

IDH1 = IDH1 (Homo sapiens, UniProt O75874); assay: IDH enzyme assay, NADPH production by diaphorase/resazurin coupled detection; details: IDH1 WT; pre-incubated with enzyme for 1 h at room temperature; 65 μM Isocitrate+50 μM NADP; 10-dose, 3-fold dilution from 10 μM; read-out: Compound IC50 (nM) IDH1
Chain of IDH1 (O75874 whole entry): as the sequence (O75874 whole entry R132C) above, with C132R counted along it
Protocol: as §1

| Compound | IC50 (IDH1 (R132C)) [nM] | IC50 (IDH1 (R132H)) [nM] | IC50 (IDH1) [nM] |
| --- | --- | --- | --- |
| C=CC(=O)N1CCC(NC(=O)c2nn(Cc3ccc(F)cc3)c3c2CN(C(=O)c2ccc[nH]2)CC3C)C1 (stereo not shown) [ISO-2-9, N-(1-acryloylpyrrolidin-3-yl)-1-(4-fluorobenzyl)-7-methyl-5-(1H-pyrrole-2-carbonyl)-4,5,6,7-tetrahydro-1H-pyrazolo[4,3-c]pyridine-3-carboxamide] | > 10000 | > 10000 | > 10000 |
| C=CC(=O)NCc1cc(F)ccc1Cn1nc(C(=O)Nc2cccc([C@H](C)O)c2)c2c1C(C)CN(C(=O)c1ccc[nH]1)C2 (stereo partly drawn) [ISO-2-8, 1-(2-(acrylamidomethyl)-4-fluorobenzyl)-N-(3-((S)-1-hydroxyethyl)phenyl)-7-methyl-5-(1H-pyrrole-2-carbonyl)-4,5,6,7-tetrahydro-1H-pyrazolo[4,3-c]pyridine-3-carboxamide] | 154 | 52 | > 10000 |
| C=CC(=O)NC1CC(NC(=O)c2nn(Cc3ccc(F)cc3)c3c2CN(C(=O)c2ccc[nH]2)CC3C)C1 (stereo not shown) [ISO-2-20, N-(3-acrylamidocyclobutyl)-1-(4-fluorobenzyl)-7-methyl-5-(1H-pyrrole-2-carbonyl)-4,5,6,7-tetrahydro-1H-pyrazolo[4,3-c]pyridine-3-carboxamide] | 7370 | 5480 | > 10000 |
| C=CC(=O)Nc1cc(Cn2nc(C(=O)Nc3cccc([C@H](C)O)c3)c3c2C(C)CN(C(=O)c2ccc[nH]2)C3)ccc1F (stereo partly drawn) [ISO-2-3, 1-(3-acrylamido-4-fluorobenzyl)-N-(3-((S)-1-hydroxyethyl)phenyl)-7-methyl-5-(1H-pyrrole-2-carbonyl)-4,5,6,7-tetrahydro-1H-pyrazolo[4,3-c]pyridine-3-carboxamide] | 77 | 34 | ≥ 10000 |
| C=CC(=O)Nc1cc(NC(=O)c2nn(Cc3ccc(F)cc3)c3c2CN(C(=O)c2ccc[nH]2)C[C@@H]3C)ccc1OC [ISO-2-30-S] | 1180 | 839 | – |
| C=CC(=O)Nc1cccc(Cn2nc(C(=O)Nc3cccc(C)c3)c3c2C(C)CN(C(=O)c2ccc[nH]2)C3)c1 (stereo not shown) [ISO-2-27, 1-(3-acrylamidobenzyl)-7-methyl-5-(1H-pyrrole-2-carbonyl)-N-(m-tolyl)-4,5,6,7-tetrahydro-1H-pyrazolo[4,3-c]pyridine-3-carboxamide] | 127 | 25 | > 10000 |
| C=CC(=O)Nc1ccc(NC(=O)c2nn(Cc3ccc(F)cc3)c3c2CN(C(=O)c2ccc[nH]2)C[C@@H]3C)cc1 [ISO-2-25-S] | 7720 | 1360 | – |
| C=CC(=O)Nc1ccc(NC(=O)c2nn(Cc3ccc(F)cc3)c3c2CN(C(=O)c2ccc[nH]2)CC3C)s1 (stereo not shown) [ISO-2-19, N-(5-acrylamidothiophen-2-yl)-1-(4-fluorobenzyl)-7-methyl-5-(1H-pyrrole-2-carbonyl)-4,5,6,7-tetrahydro-1H-pyrazolo[4,3-c]pyridine-3-carboxamide] | 35 | 5 | 4780 |
| C=CC(=O)Nc1cccc(CNC(=O)c2nn(Cc3ccc(F)cc3)c3c2CN(C(=O)c2ccc[nH]2)CC3C)c1 (stereo not shown) [ISO-2-32, N-(3-acrylamidobenzyl)-1-(4-fluorobenzyl)-7-methyl-5-(1H-pyrrole-2-carbonyl)-4,5,6,7-tetrahydro-1H-pyrazolo[4,3-c]pyridine-3-carboxamide] | 7500 | 3150 | – |
| C=CC(=O)N1CC(NC(=O)c2nn(Cc3ccc(F)cc3)c3c2CN(C(=O)c2ccc[nH]2)CC3C)C1 (stereo not shown) [ISO-2-10, N-(1-acryloylazetidin-3-yl)-1-(4-fluorobenzyl)-7-methyl-5-(1H-pyrrole-2-carbonyl)-4,5,6,7-tetrahydro-1H-pyrazolo[4,3-c]pyridine-3-carboxamide] | 9500 | > 10000 | > 10000 |
| C=CC(=O)Nc1ccc(Cn2nc(C(=O)Nc3cccc(C)c3)c3c2C(C)CN(C(=O)c2ccc[nH]2)C3)cc1C (stereo not shown) [ISO-2-28, 1-(4-acrylamido-3-methylbenzyl)-7-methyl-5-(1H-pyrrole-2-carbonyl)-N-(m-tolyl)-4,5,6,7-tetrahydro-1H-pyrazolo[4,3-c]pyridine-3-carboxamide] | 5550 | 149 | > 10000 |
| C=CC(=O)Nc1cccc(NC(=O)c2nn(Cc3ccc(F)cc3)c3c2CN(C(=O)c2ccc[nH]2)CC3C)c1 (stereo not shown) [ISO-2-4, N-(3-acrylamidophenyl)-1-(4-fluorobenzyl)-7-methyl-5-(1H-pyrrole-2-carbonyl)-4,5,6,7-tetrahydro-1H-pyrazolo[4,3-c]pyridine-3-carboxamide] | 121 | 49 | > 10000 |
| C=CC(=O)N1CCCC(NC(=O)c2nn(Cc3ccc(F)cc3)c3c2CN(C(=O)c2ccc[nH]2)CC3C)C1 (stereo not shown) [ISO-2-6, N-(1-acryloylpiperidin-3-yl)-1-(4-fluorobenzyl)-7-methyl-5-(1H-pyrrole-2-carbonyl)-4,5,6,7-tetrahydro-1H-pyrazolo[4,3-c]pyridine-3-carboxamide] | > 10000 | > 10000 | > 10000 |
| C=CC(=O)N1CCC(NC(=O)c2nn(Cc3ccc(F)cc3)c3c2CN(C(=O)c2ccc[nH]2)CC3C)CC1 (stereo not shown) [ISO-2-26, N-(1-acryloylpiperidin-4-yl)-1-(4-fluorobenzyl)-7-methyl-5-(1H-pyrrole-2-carbonyl)-4,5,6,7-tetrahydro-1H-pyrazolo[4,3-c]pyridine-3-carboxamide] | > 10000 | > 10000 | > 10000 |
| C=CC(=O)Nc1cc(F)ccc1Cn1nc(C(=O)Nc2cccc([C@H](C)O)c2)c2c1C(C)CN(C(=O)c1ccc[nH]1)C2 (stereo partly drawn) [ISO-2-7, 1-(2-acrylamido-4-fluorobenzyl)-N-(3-((S)-1-hydroxyethyl)phenyl)-7-methyl-5-(1H-pyrrole-2-carbonyl)-4,5,6,7-tetrahydro-1H-pyrazolo[4,3-c]pyridine-3-carboxamide] | 247 | 153 | > 10000 |
| C=CC(=O)Nc1cc(NC(=O)c2nn(Cc3ccc(F)cc3)c3c2CN(C(=O)c2ccc[nH]2)CC3C)ccc1Cl (stereo not shown) [ISO-2-29, N-(3-acrylamido-4-chlorophenyl)-1-(4-fluorobenzyl)-7-methyl-5-(1H-pyrrole-2-carbonyl)-4,5,6,7-tetrahydro-1H-pyrazolo [4,3-c]pyridine-3-carboxamide] | 61 | 14 | – |

Results, then the molecule that gave them:

| IC50 (IDH1 (R132C)) [nM] | IC50 (IDH1 (R132H)) [nM] | IC50 (IDH1) [nM] | Compound |
| --- | --- | --- | --- |
| 21 | 10 | 2140 | C=CC(=O)Nc1ccc(NC(=O)c2nn(Cc3ccc(F)cc3)c3c2CN(C(=O)c2ccc[nH]2)C[C@H]3C)cc1 [ISO-2-25-R] |
| 8 | 1 | – | C=CC(=O)Nc1cc(NC(=O)c2nn(Cc3ccc(F)cc3)c3c2CN(C(=O)c2ccc[nH]2)CC3C)ccc1OC (stereo not shown) [ISO-2-30, N-(3-acrylamido-4-methoxyphenyl)-1-(4-fluorobenzyl)-7-methyl-5-(1H-pyrrole-2-carbonyl)-4,5,6,7-tetrahydro-1H-pyrazolo [4,3-c]pyridine-3-carboxamide] |
| 8 | 0.5 | – | Cc1cccc(NC(=O)c2nn(Cc3ccc(F)c(NC(=O)/C=C/CCl)c3)c3c2CN(C(=O)c2ccc[nH]2)CC3C)c1 (stereo not shown) [ISO-2-36, (E)-1-(3-(4-chlorobut-2-enamido)-4-fluorobenzyl)-7-methyl-5-(1H-pyrrole-2-carbonyl)-N-(m-tolyl)-4,5,6,7-tetrahydro-1H-pyrazolo[4,3-c]pyridine-3-carboxamide] |
| 35 | 18 | > 10000 | C=CC(=O)Nc1cc(Cn2nc(C(=O)Nc3cccc(C)c3)c3c2C(C)CN(C(=O)c2ccc[nH]2)C3)ccc1F (stereo not shown) [ISO-2-1, 1-(3-acrylamido-4-fluorobenzyl)-7-methyl-5-(1H-pyrrole-2-carbonyl)-N-(m-tolyl)-4,5,6,7-tetrahydro-1H-pyrazolo[4,3-c]pyridine-3-carboxamide] |
| 4 | 0.5 | – | C=CC(=O)Nc1ccc2c(Cn3nc(C(=O)Nc4cccc(C)c4)c4c3C(C)CN(C(=O)c3ccc[nH]3)C4)cccc2c1 (stereo not shown) [ISO-2-38, 1-((6-acrylamidonaphthalen-1-yl)methyl)-7-methyl-5-(1H-pyrrole-2-carbonyl)-N-(m-tolyl)-4,5,6,7-tetrahydro-1H-pyrazolo[4,3-c]pyridine-3-carboxamide] |
| 14 | 6 | 2210 | C=CC(=O)Nc1cc(NC(=O)c2nn(Cc3ccc(F)cc3)c3c2CN(C(=O)c2ccc[nH]2)C[C@H]3C)ccc1OC [ISO-2-30-R] |
| 27 | 5 | – | C=CC(=O)N1CCc2ccc(NC(=O)c3nn(Cc4ccc(F)cc4)c4c3CN(C(=O)c3ccc[nH]3)CC4C)cc21 (stereo not shown) [ISO-2-31, N-(1-acryloylindolin-6-yl)-1-(4-fluorobenzyl)-7-methyl-5-(1H-pyrrole-2-carbonyl)-4,5,6,7-tetrahydro-1H-pyrazolo[4,3-c]pyridine-3-carboxamide] |
| 0.8 | 0.6 | 5740 | C=CC(=O)Nc1ccc(NC(=O)c2nn(Cc3ccc(F)cc3)c3c2CN(C(=O)c2ccc[nH]2)CC3C)cc1 (stereo not shown) [ISO-2-25, N-(4-acrylamidophenyl)-1-(4-fluorobenzyl)-7-methyl-5-(1H-pyrrole-2-carbonyl)-4,5,6,7-tetrahydro-1H-pyrazolo[4,3-c]pyridine-3-carboxamide] |
